The nature of one data set: Release kinetics assay. Format: physicochemical. The conditions noted are these: pH 4.0, 37° C. As for the experimental part: The SO1861 conjugate of interest was dissolved in an acetate buffer (20 mM, pH 4.0 or pH 5.0), a phosphate buffer (20 mM) or in a PBS buffer (pH 7.4) with a final concentration of 10 μM at 20° C. or at 37° C. The release of SO1861 was followed overtime by monitoring the decrease of the UPLC-UV 4 peak area of the SO1861 conjugate of interest at different time points.

Data set [1] deals with human red blood cells (RBC). Put plainly: Haemolysis assay. It counts as cell-based. As to conditions: fresh human red blood cells. As for the experimental part:
Red blood cells (RBCs) were isolated from a buffy coat using a Ficoll gradient. The obtained RBC pellet (˜4-5 ml) was washed 2× with 50 ml DPBS (without Ca^2+/Mg^2+, PAN-Biotech GmbH). Cells were pelleted by centrifugation for 10 min, 800×g at RT. RBC were counted and resuspended at 500,000,000 c/ml in DPBS (without Ca^2+/Mg^2+), based on total cell count. SO1861-linker dilutions were prepared in DPBS (with Ca^2+/Mg^2+, PAN-Biotech GmbH), at 1.11× final strength. For positive lysis control a 0.02% Triton-X100 solution was prepared in DPBS^+/+. Of all compound solutions 135 μl was dispensed/well in a 96 well V-bottom plate. To this 15 μl RBC suspension was added and mixed shortly (10 sec-600 rpm). The plate was incubated 30 min at RT, with gentle agitation. Afterwards the plate was spun for 10 min at 800×g to pellet the RBC and 100-120 μl supernatant was transferred to a standard 96 wp. Subsequently, the OD at 405 nm was measured on a Thermo Scientific Multiskan FC plate reader (Thermo Scientific).

Data set [2] concerns HSP27 mRNA expression in A431 cells. As to the kind of experiment: HSP27 gene silencing (qPCR) in A431 cells. Format: cell-based. The conditions noted are these: Homo sapiens, A-431, saponin titrated +50 nM Trastuzumab-HSP27BNA. The source says:
RNA Isolation and Gene Expression Analysis
RNA from cells was isolated and analysed according to standard protocols (Biorad).

The test system of data set [3] is HeLa cells. Put plainly: Cell toxicity (MTS cell viability assay). Format: cell-based, human. As to conditions: saponin alone. As for the experimental part: (§1) Cell viability was determined by an MTS-assay, performed according to the manufacturer's instruction (CellTiter 96® AQueous One Solution Cell Proliferation Assay, Promega). Briefly, the MTS solution was diluted 20× in DMEM without phenol red (PAN-Biotech GmbH) supplemented with 10% FBS (PAN-Biotech GmbH). The cells were washed once with 200 μL PBS per well, after which 100 μL diluted MTS solution was added per well. The plate was incubated for approximately 20-30 minutes at 37° C. Subsequently, the optical density at 492 nm was measured on a Thermo Scientific Multiskan FC plate reader (Thermo Scientific).

Data set [4] concerns A431 cells. Format: cell-based, human. As for the experimental part:
as §1

Data set [5] relates to HeLa cells. Format: cell-based, human. As for the experimental part:
as §1

The subject of data set [6] is A431 cells. Put plainly: Cell toxicity (MTS cell viability assay). Format: cell-based, human. The conditions noted are these: saponin alone. The protocol:
as §1

[7] abbreviates: +5 pM EGFdianthin or 10 pM cetuximab-saporin or 50 pM Trastuzumab-saporin.
[8] abbreviates: read-out: IC50 nM (Activity; +5 pM EGFdianthin), saponin titrated +5 pM EGFdianthin.

Each structure is given as a SMILES string. Read-outs that look alike come from different tables or passages of the source.

For the compound `CC(=O)OC1C(C)OC(OC2C(C)OC(OC(=O)[C@]34CCC(C)(C)CC3C3=CCC5[C@@]6(C)CC[C@H](OC7OC(C(=O)O)C(O)C(OC8OCC(O)C(O)C8O)C7OC7OC(CO)C(O)C(O)C7O)[C@@](C)(C=NNC(=O)CCCCCN7C(=O)CC(SCCO)C7=O)C6CC[C@@]5(C)[C@]3(C)C[C@H]4O)C(OC3OC(C)C(OC4OCC(O)C(OC5OC(CO)C(O)C(O)C5O)C4O)C(O)C3O)C2O)C(O)C1OC1OCC(O)C(O)C1O` (stereo partly drawn) [SO1861-EMCH (blocked)], in the data set “Release kinetics assay”, the “time to 50% release of SO1861” value was 12 h. Moreover, the IC50 in data set [1] (Erythrocyte) amounted to 6 µM.
For `CC(=O)OC1C(C)OC(OC2C(C)OC(OC(=O)[C@]34CCC(C)(C)CC3C3=CCC5[C@@]6(C)CC[C@H](OC7OC(C(=O)O)C(O)C(OC8OCC(O)C(O)C8O)C7OC7OC(CO)C(O)C(O)C7O)[C@@](C)(C=NNC(=O)N7CCN(C(=O)CCCCCN8C(=O)C=CC8=O)CC7)C6CC[C@@]5(C)[C@]3(C)C[C@H]4O)C(OC3OC(C)C(OC4OCC(O)C(OC5OC(CO)C(O)C(O)C5O)C4O)C(O)C3O)C2O)C(O)C1OC1OCC(O)C(O)C1O` (stereo partly drawn) [SO1861-SC-Mal], the IC50 in data set [2] was 0.6 µM; in the data set with HeLa cells [3] (Homo sapiens), more than 100 µM; in data set [1] (Erythrocyte) it was 250 µM.
Consider `CC(=O)O[C@H]1[C@H](O[C@@H]2OC[C@@H](O)[C@H](O)[C@H]2O)[C@@H](O)[C@H](O[C@@H]2[C@H](O)[C@@H](O[C@@H]3O[C@@H](C)[C@H](O[C@@H]4OC[C@@H](O)[C@H](O[C@@H]5O[C@H](CO)[C@@H](O)[C@H](O)[C@H]5O)[C@H]4O)[C@@H](O)[C@H]3O)[C@H](OC(=O)[C@]34CCC(C)(C)C[C@H]3C3=CC[C@@H]5[C@@]6(C)CC[C@H](O[C@@H]7O[C@H](C(=O)O)[C@@H](O)[C@H](O[C@@H]8OC[C@@H](O)[C@H](O)[C@H]8O)[C@H]7O[C@@H]7O[C@H](CO)[C@H](O)[C@H](O)[C@H]7O)[C@@](C)(C=O)[C@@H]6CC[C@@]5(C)[C@]3(C)C[C@H]4O)O[C@@H]2C)O[C@@H]1C` [SO1861], for which the “cell-killing activity compared with the SO1861 derivatives” value in the data set on A431 cells [4] (setting [7]) and in the data set on HeLa cells [5] (setting [7]) was “strongest cell-killing activity” throughout. Also, the IC50 in the data set on A431 cells [4] (setting [8]) amounted to 300 nM; in the data set on HeLa cells [5] (setting [8]) it was 500 nM; with A431 cells [6], 2 µM; in the data set with HeLa cells [3], 9 µM; in data set [1], 10 µM.

(Values after patent US20240115712A1, “SEMICARBAZONE-BASED SAPONIN CONJUGATE” (priority 2021, published 2024).)
